According to patent US12397059B2, “Compounds and methods for the treatment and prevention of fibrotic disease states and cancer” (Purdue Research Foundation, priority 2019, dated 2025):

Tests used:
[1] = tested on: BM-induced experimental pulmonary fibrosis in mice; settings: mouse, in vivo
Description: Studies were also performed to determine if macrophages in pulmonary fibrotic lungs might be specifically targeted with folate-linked drugs in vivo. […] (The BM model is widely regarded to be helpful in terms of enabling mechanistic investigations relevant to fibrogenesis in an in vivo context.)
More specifically, eight-week-old C57BL6 male mice from Charles River (average weight 22 g to 25 g) were housed under pathogen-free conditions at room temperature (22° C.) under a 12 hours light-dark cycle. Mice were placed on a folate deficient chow (Envigo Teklad Global Rat Food Pellets) for 1 week prior to the BM or PBS instillation. Fresh water and folate-deficient diet were freely available. All animal procedures were approved by the Purdue Animal Care and Use Committee in accordance with National Institute of Health guidelines.
Thereafter, the mice were anesthetized with ketamine/xylazine and the necks of the mice were shaved using hair remover lotion and then sterilized with 70% alcohol. A small incision was made on the neck to visualize the trachea. Mice were positioned at a 75-degree angle and injected intratracheally with 100 μL sterile PBS or BM (Cayman Chemicals, Ann Arbor, MI; #13877) dissolved in PBS (0.75 mg/kg) using a 1 cc syringe with 26 G needle. Body weights were monitored every other day throughout the experiment.
Lobes of the right lung collected above were weighed, placed in a pressure-tight vial (Supelco Inc., Bellefonte, PA; #27003), and hydrolyzed with 6N HCl (10 ml/g, v/w) in a sand bath at 120° C. for 3.5 hours. The hydrolyzed solution was cooled at 4° C. for 15 min and transferred to a 1.5 ml Eppendorf tube prior to centrifugation at 12,000 rcf for 15 min at 4° C. Supernatant was carefully collected, aliquoted and used for hydroxyproline (HYP) analysis.
For the subsequent HYP analysis, 10 μl of sample was transferred into a 96-well plate and neutralized with 10 μl of 5.3 M sodium hydroxide solution. Isopropanol (40 μl) was then added to each well followed by 20 μl of oxidation buffer and the mixture was incubated on a shaker at room temperature for 5 min. Analytical reagent (260 μl) was added, and the plate was incubated on a shaker at room temperature for 30 seconds and incubated immediately at 60° C. for 25 min. The absorbance was measured at 560 nm (A560) within 15 min. All reagents were prepared according to a previously reported protocol.
For histological analysis of the lung sections, fixed lungs (see above) were embedded in paraffin, sectioned and stained with hematoxylin-eosin (H&E), Masson's trichrome or F3 (anti-mouse FRβ antibody). Tissue sections were examined in a blinded manner by a licensed pathologist. More than 90×10^6 cells were quantified per section using Aperio-Image Scope (Leica Biosystems, Wetzlar, DE).
For this, BM-treated mice were intravenously injected every other day beginning on day 10 with either vehicle (3% DMSO in PBS) or Compound 1B (see FIG. 8A). […] In BM-induced experimental pulmonary fibrosis in mice, inflammation is known to persist for about 9-10 days after BM installation. Because, inflammation to fibrosis switch happens in this model approximately day 9 to day 14, and profibrotic markers start appearing at about day 10, dosing began on day 10 (FIG. 8A).
Two doses were given every other day till day 21. The individual doses on a day are separated by 6 hours to prevent any “tolerance” to TLR agonists. Mice were then sacrificed on day 21 and subjected immediately to bronchoalveolar lavage followed by resection of the lungs for immunohistochemistry and quantitation of collagen and hydroxyproline.

[2] = tested on: M2-induced THP-1 macrophages; test: Secreted CCL18 and IL-1β in THP-1 supernatants by ELISA; assay type: cell-based, human; settings: THP-1 cells of FIGS. 14A-14C, low concentration range (0.1-10 nM)
[3] = tested on: THP-1 cells polarized to M2-like macrophages; test: Reprogramming of M2-like THP-1 macrophages, marker gene analysis by qPCR; assay type: cell-based, human; settings: M2-induced THP-1, 2 hours, qPCR
Description: THP-1 cells were seeded into 96-well plates at a density of 60,000 cells/well. Cells were differentiated into unpolarized macrophages by 48 hours incubation with 200 nM PMA followed by 24 hours incubation in fresh RPMI medium. […] Cultures were maintained at 37° C. in a humidified 5% CO2 incubator.
Total RNA was isolated from 1×10^5 —2×10^5 macrophages using a Quick-RNA™ MicroPrep kit (Zymo Research, Irvine, CA) according to the manufacturer-recommended protocol. […] IL-6, CXCL10, IFNα, IFN-γ and CD86 were used as markers for an M1 phenotype, while CCL18, CD206, CD163 and Arg1 were employed as markers for the M2 phenotype. IL-1β, PDGFβ, MMP9 and TIMP 3 were measured as indicators of a profibrotic phenotype. IRAK-4 was used as an indicator of TLR7 stimulation. To control for specificity of the amplification products, a melting curve analysis was performed. […] Each sample was analyzed independently in triplicate for each marker.
Primarily, human monocytic (THP-1) cells were induced to the M2-like phenotype using the methods and materials previously described. In particular, THP-1 cells were seeded into 96-well plates at a density of 60,000 cells/well. Cells were differentiated into unpolarized macrophages by 48 h incubation with 200 nM PMA followed by 24 hours incubation in fresh RPMI medium. The resulting macrophages were polarized to an M2-like phenotype by incubation with 20 ng/ml IL-4, 20 ng/ml IL-13, and 5 ng/mL IL-6 for 48 h. Cultures were maintained at 37° C. in a humidified 5% CO2 incubator.
In addition to the nonconjugated TLR7 agonist, conjugated compounds of the present disclosure were likewise evaluated. […] The cells were subsequently harvested for gene analysis by qPCR and the relative expression of CCL18 (FIG. 14A), CD206 (FIG. 14B), and IL-1β (FIG. 14C) analyzed.

FRβ positive macrophages = settings: mouse, in vivo
Description: To evaluate if profibrotic lung macrophages in these mice can be specifically targeted with folate-linked drugs, 10 days after the instillation, 10 nmol (for in vivo imaging) or 100 nmol (for in vivo labeling) of a folate-linked, near infrared fluorescent dye (OTL38) with or without 200-fold excess of FA-glucosamine (a competitor of OTL38) was injected into the tail veins of BM-treated mice and the dye uptake in the major organs was evaluated.
Finally, for the in vivo folate imaging studies, major organs (heart, lung, spleen, liver, small intestine, large intestine, and kidney) were resected and imaged using an AMI live imager (Spectral Instruments Imaging, Tucson, AZ). For in vivo folate receptor labeling studies, lungs of the mice were harvested immediately following euthanasia, digested with a lung dissociation kit (Miltenyi Biotec, Bergisch Gladbach, DE; #130-098-427) as described by gentleMACS Octo Dissociator with Heathers (Miltenyi Biotec, Bergisch Gladbach, DE; #130-096-427) as described by manual and filtered through a 70 μm cell strainer (Miltenyi Biotec, Bergisch Gladbach, DE; #130-098-462). […] Labeled macrophages were then washed twice in PBS, stained with 7AAD (viability stain) for 15 min and analyzed by flow cytometry using BD Accuri C6 Software (BD Biosciences, San Jose, CA). […]

FRβ = target: T1, FRβ (Mus musculus, UniProt Q05685); settings: in vivo
T1 construct: from tissue; host or cells: major organs (heart, lung, spleen, liver, small intestine, large intestine, kidney) of bleomycin- or PBS-treated C57BL/6 mice; FRβ-expressing lung macrophages
T1 sequence (Q05685 21-227): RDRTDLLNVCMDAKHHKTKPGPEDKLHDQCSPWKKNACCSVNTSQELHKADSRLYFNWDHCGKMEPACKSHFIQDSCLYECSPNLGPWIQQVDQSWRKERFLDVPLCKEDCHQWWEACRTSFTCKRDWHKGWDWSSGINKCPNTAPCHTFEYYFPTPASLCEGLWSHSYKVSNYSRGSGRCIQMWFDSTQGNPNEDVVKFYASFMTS
Description: FIGS. 7C and 7D show FRβ IHC staining of human IPF lung tissue (FIG. 7C) and healthy human lung tissue (FIG. 7D). […] After 2 hours, mice were sacrificed prior to analysis.

Compound	secretion of CCL18 protein [2]	CCL18 relative expression [3]	CD206 relative expression [3]	IL-1β relative expression [3]	effectiveness in reducing profibrotic markers relative to the other compounds [3]	other results
CCCCc1nc2c(N)nc3ccccc3c2n1CC(C)(C)O [Compound 1A, 1-(4-Amino-2-butyl-1H-imidazo[4,5-c]quinolin-1-yl)-2-methylpropan-2-ol]	–	–	–	–	–	body weight change [1]: rapid body weight loss followed by death
Nc1nc(C(F)(F)F)cc2c1[nH]c(=O)n2Cc1ccc(NCCN2CCCC(CO)C2)nc1 (centres unmarked) [Compound 3A]	downregulated	–	–	–	–	–
Nc1nc2ncc(CNc3ccc(C(=O)NC(CCC(=O)N[C@@H](CSSCCOC(=O)OCC4CCCN(CCNc5ccc(Cn6c(=O)[nH]c7c(N)nc(C(F)(F)F)cc76)cn5)C4)C(=O)O)C(=O)O)cc3)nc2c(=O)[nH]1 (some centres unmarked) [Compound 3B]	downregulated	reduced	reduced	reduced	–	–
Nc1nc2ncc(CNc3ccc(C(=O)N[C@@H](CCC(=O)NCCOCCOCCOCCOCCOCCOCCOCCOCCOCCOCCOCCOCCOCC4CCCN(CCNc5ccc(Cn6c(=O)[nH]c7c(N)nc(C(F)(F)F)cc76)cn5)C4)C(=O)O)cc3)nc2c(=O)[nH]1 (some centres unmarked) [Compound 3C]	downregulated	reduced	reduced	reduced	most effective relative to the other compounds	benefit to the subject mice [1]: did not show measurable benefit; hydroxyproline (HP) [1]: decreasing; number of BALF cells [1]: decreasing; survival rates [1]: increased the survival rates
Nc1nc2ncc(CNc3ccc(C(=O)N[C@@H](CCC(=O)NCCOCCOCCOCCOCC4CCCN(CCNc5ccc(Cn6c(=O)[nH]c7c(N)nc(C(F)(F)F)cc76)cn5)C4)C(=O)O)cc3)nc2c(=O)[nH]1 (some centres unmarked) [Compound 3D]	downregulated	reduced	reduced	reduced	most effective relative to the other compounds	–
OTL38	–	–	–	–	–	folate-dye retention with 200-fold excess folate-glucosamine (FRβ positive macrophages): blocked essentially all folate-dye retention; OTL38 fluorescence in organs of healthy mice (FRβ): only observed in the kidneys; lung accumulation with 200-fold excess folate-glucosamine (FRβ): nearly quantitative blockade of lung accumulation
